Experimental data: ChEMBL document CHEMBL6109123, “Structure of Mycobacterial NDH-2 Bound to a 2-Mercapto-Quinazolinone Inhibitor” (J Med Chem, 2025)
The source made the active and inactive calls. The rule behind the calls is not given here.

Tests used:
[1] = tested on: Mycolicibacterium smegmatis; assay: Inhibition of Mycobacterium smegmatis GMC_MDM2 NDH2 in inverted membrane vesicle assessed as inhibition of ATP-driven vesicle acidification by fluorescence based analysis; format: cell membranes
[2] = tested on: Mycolicibacterium smegmatis; assay: Inhibition of Mycobacterium smegmatis NDH2 in inverted membrane vesicle assessed as inhibition of succinate-driven vesicle acidification by fluorescence based analysis; format: cell membranes
[3] = tested on: Mycolicibacterium smegmatis; assay: Inhibition of Mycobacterium smegmatis NDH2 in inverted membrane vesicle assessed as inhibition of […] vesicle acidification by fluorescence based analysis; format: cell membranes
[4] = tested on: Mycolicibacterium smegmatis; assay: Inhibition of Mycobacterium smegmatis NDH2 in inverted membrane vesicle assessed as inhibition of […] vesicle acidification at up to 120 uM by fluorescence based analysis; format: cell membranes
[5] = tested on: Mycolicibacterium smegmatis; assay: Inhibition of Mycobacterium smegmatis NDH2 in inverted membrane vesicle assessed as inhibition of succinate-driven vesicle acidification at >10 uM by fluorescence based analysis; format: cell membranes
[6] = Inhibition of recombinant Mycobacterium smegmatis NDH2 catalytic activity in presence of NADH incubated for 1 min by UV-spectrometric analysis; set-up: species or system Mycolicibacterium smegmatis
[7] = tested on: Mycolicibacterium smegmatis; assay: Inhibition of Mycobacterium smegmatis GMC_MDM2 NDH2 in inverted membrane vesicle assessed as inhibition of ATP-driven vesicle acidification at >10 uM by fluorescence based analysis; format: cell membranes

SMILES	inhibition [1]	inhibition [2]	inhibition [3]	inhibition [4]	inhibition [5]	IC50 [6]	inhibition [7]
Nc1nc(Nc2ccc3nc(-c4ccc(F)cc4)cc(N)c3c2)cc(-c2ccc(Cl)cc2)n1	Active	Active	Active				
C=C(C)[C@H]1Cc2c(ccc3c2O[C@@H]2COc4cc(OC)c(OC)cc4[C@@H]2C3=O)O1				inactive			
O=C(CSc1nc2ccccc2c(=O)[nH]1)NC1CCCCC1	Active				Active; Compound Showed Partial Inhibition Of Succinate Driven Acidification	23 nM	Active; Compound Showed Partial Inhibition Of Atp Driven Acidification
Nc1nc(Nc2ccc3nc(-c4ccc(F)cc4)cc(N)c3c2)cc(-c2ccc(C(F)(F)F)cc2)n1	Active	Active	Active				
